In publication PMC10741979, “Inhibition of NMDA Receptor Activation in the Rostral Ventrolateral Medulla by Amyloid-β Peptide in Rats” (Biomolecules, 2023):

Key:
Type in all cases: in vivo, rats
[1] = test system: NMDA receptors in the RVLM; assay: Pressor response to microinjection of NMDA into the RVLM; conditions: 0.14 nmol
Text: (§1) The procedure for ICV administration of anesthetized rats was similar to those described in our previous study. Adult male Sprague Dawley 8–10 weeks old rats (300–400 g) were used in this experiment under urethane anesthetized (1.2–1.5 g/kg i.p.). The femoral artery was cannulated with polyethylene tubing (PE 50) and connected with its output to BIOPAC Systems Inc. (MP100 or MP160) to measure pulsatile and mean arterial pressure. After a set of blood pressure recordings, each rat was arranged in a stereotaxic frame for ICV and RVLM microinjection using a stainless still needle connected to the Hamilton microsyringes (10 µL). Drugs were microinjected using a syringe pump (KDS 100) at a rate of 10 µL/min. The magnitude of increases in the blood pressure (pressor responses) induced by microinjection of NMDA (0.14 nmol, 100 nL) into the RVLM every 30 min was used as an index of NMDA receptor function in the RVLM. Aβ and 0.9% saline (5 µL) were applied intracerebroventricularly. The data were processed and calculated before the treatment and at a different period after drug administration.

[2] = test system: NMDA receptors in the RVLM; assay: NMDA-induced pressor responses in the RVLM after ICV drug administration
Text: as §1
All values are expressed as mean ± SEM and statistically analyzed using GraphPad Prism version 9.0 for Windows (GraphPad Software, San Diego, CA, USA). We analyzed the original data for NMDA-induced increases in MAP (mmHg) before and after applications of Aβ statistically. The time-effect relationship of Aβ on NMDA-induced pressor responses was analyzed using the repeated measure one-way ANOVA followed by Bonferroni’s multiple comparison post-test. p ≤ 0.05 is considered statistically significant. We compared the effects of Aβ on NMDA-increased mean arterial pressure to the control and expressed them as percentage changes; the peak amplitude of NMDA-induced pressor responses before the application of Aβ is taken as control (i.e., 100%). Immunohistochemical data and ELISA data were analyzed using an unpaired t-test. p ≤ 0.05 is considered statistically significant.

GluN1 = assay: Immunohistochemistry, number of GluN1-immunoreactive neurons in the RVLM; conditions: 10 min after ICV 2 nmol; mean ± SEM, n = 6; saline group 63.2 ± 2.4; no significant difference
Procedure: (§2) The procedure of immunostaining of RVLM tissue sections was similar to those previously described. The animals were anesthetized with i.p. urethane (1.2–1.5 g/kg). The rat was sacrificed at 10 min following ICV administration of Aβ or saline by transcardial perfusion with 50 mL of saline followed by 300–400 mL of paraformaldehyde (4%) in 0.1 M phosphate buffer (pH 7.4). The RVLM was post-fixed in the same fixative overnight and then cryoprotected in 30% sucrose in 0.05 M phosphate buffer (pH 7.4) for 48 h. Coronal brainstem sections (30 μm) were cut through the segments using a cryostat (Leica CM3050S, Leica Microsystems Nussloch GmbH, Nussloch, Germany). […] For the relative quantification of immunoreactivity, each image field was captured using a CCD camera mounted on a microscope (Nikon Eclipse E800, Corporation, Tokyo, Japan). […] The average number of immunoreactive (IR) neurons on both sides per section was counted and averaged. We randomly took 4–6 sections per animal and calculated the average number of IR neurons representing the animal’s immunoreactivity to the antibody.
(§3) All values are expressed as mean ± SEM and statistically analyzed using GraphPad Prism version 9.0 for Windows (GraphPad Software, San Diego, CA, USA). We analyzed the original data for NMDA-induced increases in MAP (mmHg) before and after applications of Aβ statistically. […]

pGluN1-serine896 = assay: Immunohistochemistry, number of pGluN1-serine896-immunoreactive neurons in the RVLM; conditions: 10 min after ICV 2 nmol; mean ± SEM, n = 6; saline group 48.9 ± 1.8; no significant difference
Procedure: as §2, §3

GluN2B = assay: Immunofluorescence, number of GluN2B-IF neurons in the RVLM; conditions: 10 min after ICV 2 nmol; mean ± SEM, n = 7; saline group 55.2 ± 1.4
Procedure: as §2, §3

pGluN2B-serine1480 = assay: Immunofluorescence, number of pGluN2B-serine1480-IF neurons in the RVLM; conditions: 10 min after ICV 2 nmol; mean ± SEM, n = 6; saline group 45.9 ± 1.0 (n = 8); significant difference
Procedure: as §2, §3

[3] = ICV 2 nmol (Aβ1-40 n = 14, Aβ1-42 n = 9), NMDA 0.14 nmol into RVLM every 30 min, urethane-anesthetized male SD rats

## CN[C@H](CC(=O)O)C(=O)O [NMDA, N-methyl-D-aspartate]
[1]; 100 nL into RVLM
  duration of pressor responses: 10 to 15 min
  onset of pressor responses: ≤ 2 min
[1]; 100 nL, at intervals of 30 min, urethane-anesthetized male SD rats
  effect of microinjection into the RVLM on MAP: induced an increase in MAP

## CC(C(O)c1ccc(O)cc1)N1CCC(Cc2ccccc2)CC1 (centres unmarked) [ifenprodil]
[2]; ICV 0.5 nmol alone, n = 5
  effect on NMDA-induced pressor responses in the RVLM: did not produce any noticeable changes
[2]; ICV 2.5 nmol alone, n = 5
  effect on NMDA-induced pressor responses in the RVLM: significantly inhibited
[2]; ICV ifenprodil 0.5 nmol with Aβ1-40 2 nmol, n = 6
  effect of co-administration on the inhibitory effects of Aβ1-40 on NMDA-induced pressor responses: attenuated the inhibitory effects

## CC12CC3CC(C)(C1)CC(N)(C3)C2 [memantine]
[2]; ICV 9 nmol alone, n = 6, 10 and 40 min after administration
  effect on NMDA-induced pressor responses in the RVLM: did not produce any noticeable changes
[2]; ICV memantine 9 nmol with Aβ1-40 2 nmol, n = 4
  effect of co-administration on the inhibitory effects of Aβ1-40 on NMDA-induced pressor responses: disappeared

## Aβ1-40: soluble human amyloid-beta peptide 1-40, purchased from Taiclone Biotech Corp.
[2]; ICV 0.2 nmol, n = 12, NMDA 0.14 nmol into RVLM every 30 min, urethane-anesthetized male SD rats
  effect on NMDA-induced pressor responses in the RVLM: slight reduction
[2]; [3]
  effect on NMDA-induced pressor responses in the RVLM: significantly inhibited
GluN1
  number of GluN1-IR neurons in the RVLM: 63.2 ± 3.8
pGluN1-serine896
  number of pGluN1-serine896-IR neurons in the RVLM: 46.4 ± 0.8
GluN2B
  number of GluN2B-IF neurons in the RVLM: 59.2 ± 2.7
pGluN2B-serine1480
  number of pGluN2B-serine1480-IF neurons in the RVLM: 52.6 ± 2.0

## Aβ1-42: soluble human amyloid-beta peptide 1-42, purchased from Taiclone Biotech Corp.
[2]; [3]
  effect on NMDA-induced pressor responses in the RVLM: did not produce any noticeable changes
[2]; ICV Aβ1-42 2 nmol with ifenprodil 0.5 nmol, n = 6
  effect on NMDA-induced pressor responses in the RVLM on co-administration with ifenprodil: little effect
[2]; ICV Aβ1-42 2 nmol with memantine 9 nmol, n = 6
  effect on NMDA-induced pressor responses in the RVLM on co-administration with memantine: did not show noticeable changes
